Measurements reported in patent publication US10071103B2, “Treatments for resistant acne” (VYOME BIOSCIENCES PVT. LTD., priority 2014, dated 2018).
Converted amounts (≈) assume the structure as drawn. “Also recorded” adds a separate entry of the source.

Assays:
IL-1α = experiment: P. acnes-induced IL-1α release in THP-1 cells (ELISA); format: cell-based; settings: 25 μg/ml, 100% = P. acnes induced cells
Protocol: (§1) Method: Preparation of Stimulant for Inflammation: P. acnes culture suspension was prepared in PBS and the cell number in the suspension was adjusted to approximately 5×10^8 CFU/ml by measuring the cell density using a Densimat. The bacterial suspension was then heat killed at 80° C. for 30 min and stored at −80° C. until further use.
(§2) Cells were seeded in a 96-well format (2×10^5 THP-1 cells per well) in media containing 10% FBS. The cells were stimulated to induce inflammatory cytokines using 3 McFarland equivalent heat-killed P. acnes. Cells in control wells were treated with PBS. One hour after induction with P. acnes, test agents were added to the induced cells at appropriate concentrations to be tested (compound 91 at 25 μg/ml). The plates were incubated at 37° C. for 24 hours. After 24 h, the plates were centrifuged to pellet the cells and the supernatants were collected. The cell culture supernatants thus obtained were analyzed for levels of cytokines (IL-1α, IL-1β, IL-6 and IL-8) by ELISA using R&D Systems kits for individual cytokines following the manufacturer's instructions.

IL-8 = experiment: P. acnes-induced IL-8 release in THP-1 cells (ELISA); format: cell-based; settings: THP-1 cells
Protocol: as §1, §2
as §1, with “Preparation” for “Method: Preparation”, “stimulant” for “Stimulant”, “inflammation:” for “Inflammation:”
(§3) Cells were seeded in a 96-well format (2×10^5 THP-1 cells per well) in media containing 10% FBS. The cells were stimulated to induce inflammatory cytokines using 3 McFarland equivalent heat-killed P. acnes. Cells in control wells were treated with PBS. One hour after induction with P. acnes, test agents were added to the induced cells at appropriate concentrations (Besifloxacin at 10 and 30 μg/ml; Adapalene at 0.04 and 0.4 μg/ml). The plates were incubated at 37° C. for 24 hours. After 24 h, the plates were centrifuged to pellet the cells and the supernatants were collected. The cell culture supernatants thus obtained were analyzed for cytokine levels (IL-6 and IL-8) by ELISA using R&D Systems kits for individual cytokines following the manufacturer's instructions.

IL-6 = experiment: P. acnes-induced IL-6 release in THP-1 cells (ELISA); format: cell-based
Protocol: as §1, §2
as §1, with “Preparation” for “Method: Preparation”, “stimulant” for “Stimulant”, “inflammation:” for “Inflammation:”
as §3

IL-1β = experiment: P. acnes-induced IL-1β release in THP-1 cells (ELISA); format: cell-based; settings: 25 μg/ml, 100% = P. acnes induced cells
Protocol: as §1, §2

P. acnes CCARM 9010 = experiment: MIC by micro broth dilution (Alamar blue), clindamycin-resistant/nonresponsive P. acnes; format: cell-based, Propionibacterium acnes; settings: for MIC: Cutibacterium acnes, CCARM9010, read-out: MIC Resistant P. acnes (9010) strain; for Activity / bacterial killing, dose response curve (in words): clindamycin-nonresponsive CCARM 9010
Protocol: (§4) The plates were incubated at 37° C. for 48 h under anaerobic condition for P. acnes and 37° C. for 24 h for S. aureus The plates were read under Bio-Rad plate reader at 595 nm for optical density to generate the dose-response curves. The MIC of the test compound was recorded by addition of Alamar blue dye.
(§5) P. acnes (MTCC 3297, MTCC 1951& CCARM 9010) are cultured in Brain Heart Infusion (BHI) Broth at 37° C. for 48-72 h under anaerobic condition. The test compounds/formulations are initially diluted with suitable solvent and further diluted with BHI broth to get the required concentrations. Samples (100 μl) of different concentrations (prepared by serial dilution) are added to 96-well plate. To the wells, 100 μl of P. acnes BHI broth culture is added [culture turbidity adjusted against 0.5 McFarland standard (approx 1.5×10^8), and further diluted 100-fold with sterile BHI broth]. In addition Growth Control and Sterility Control are created using 100 μl each of P. acnes BHI broth culture and plain BHI broth, respectively.
(§6) Plates are incubated at 37° C. for 48-72 hrs under anaerobic condition. The plate is read under Bio-Rad plate reader @ 595 nm for optical density to generate the dose-response curves. The MIC of the test compound is recorded by addition of Alamar blue dye.

E. coli DNA gyrase = molecular target: T1, E. coli DNA gyrase (Escherichia coli, UniProt P0AES4+P0AES6); experiment: DNA gyrase super-coiling activity assay (Topogen kit, relaxed pHOT1 plasmid); format: biochemical; settings: 1 μM and 2.5 μM
T1 construct: purchased Topogen Inc
T1 sequence (P0AES4 whole entry, one chain of several): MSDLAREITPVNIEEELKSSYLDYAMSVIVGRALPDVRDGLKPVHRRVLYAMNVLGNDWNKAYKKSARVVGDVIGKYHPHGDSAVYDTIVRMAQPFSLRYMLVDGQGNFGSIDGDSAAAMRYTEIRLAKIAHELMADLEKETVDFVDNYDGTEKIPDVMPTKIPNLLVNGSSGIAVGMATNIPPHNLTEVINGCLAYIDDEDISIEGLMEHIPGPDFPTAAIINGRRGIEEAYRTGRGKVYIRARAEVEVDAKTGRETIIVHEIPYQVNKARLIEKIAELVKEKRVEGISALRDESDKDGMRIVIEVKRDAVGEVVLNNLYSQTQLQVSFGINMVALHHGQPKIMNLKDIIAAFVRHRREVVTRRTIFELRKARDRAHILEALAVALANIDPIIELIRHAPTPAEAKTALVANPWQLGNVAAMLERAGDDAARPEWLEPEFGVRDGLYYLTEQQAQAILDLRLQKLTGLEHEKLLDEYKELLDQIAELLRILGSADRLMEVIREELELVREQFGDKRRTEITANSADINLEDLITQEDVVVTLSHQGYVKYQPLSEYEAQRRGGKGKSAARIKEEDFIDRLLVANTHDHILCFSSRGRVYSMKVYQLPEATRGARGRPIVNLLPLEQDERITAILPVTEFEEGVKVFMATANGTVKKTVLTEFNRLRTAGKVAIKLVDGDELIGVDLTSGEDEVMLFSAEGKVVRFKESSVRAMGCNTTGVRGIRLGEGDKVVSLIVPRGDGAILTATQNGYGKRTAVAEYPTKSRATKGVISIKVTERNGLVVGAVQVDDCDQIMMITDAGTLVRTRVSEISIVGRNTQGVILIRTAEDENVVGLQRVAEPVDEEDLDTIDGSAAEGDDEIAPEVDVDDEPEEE
Protocol: DNA super-coiling activity was assayed using DNA gyrase assay kit (Topogen Inc.) with relaxed pHOT1 E. coli plasmid DNA according to manufacturer's protocol. The standard reaction mixture (20 μl) contained 35 mM Tris-HCl (pH 7.5), 24 mM KCl, 4 mM MgCl2, 2 mM dithiothreitol, 1.8 mM spermidine, 1 mM ATP, 6.5% glycerol, 0.1 mg/ml bovine serum albumin (BSA), 10 μg/ml relaxed pHOT1 plasmid DNA and 1 U of DNA gyrase. The reaction mixture was incubated at 37° C. for 1 h in presence of selected compounds/fluoroquinolone at different concentrations. The reaction was terminated by addition of ⅕ volume of loading dye (4 μl) followed by proteinase K (50 μg/ml) and again incubated at 37° C. for half an hour. 20 μl chloroform/isoamyl alcohol (24:1) was added to each tube and vortexed briefly. Thereafter, the blue aqueous phase was separated out and analyzed by 1% agarose gel electrophoresis. The gel was stained by ethidium bromide for half an hour and destained with water for 15 mins. The gel was then visualized in a trans-illuminator and photographed.

S. aureus MTCC 6908 = experiment: MIC by micro broth dilution, laboratory S. aureus strain; format: cell-based, Staphylococcus aureus; settings: for MIC: Staphylococcus aureus, MTCC6908, Table 6, read-out: MIC Susceptible S. aureus (6908) strain
Protocol: as §4
S. aureus MTCC 6908 were grown in Tryptone Soya Agar (TSA) at 37° C. for 24 hours. […] Plates were incubated at 37° C. for 24 hours. […] (2) Zone of Inhibition (ZOI): S. aureus MTCC 6908 were grown in Tryptone Soya Agar (TSA) at 37° C. for 24 hours. BHA plates are spreaded with 100 μl of 0.5 McFarland standard equal bacterial suspension. Test samples (drugs/formulations) were dissolved in water/solvent based on the solubility. Sterile disc (6 mm) were loaded with 10 μl of test samples (of various concentration of drug), and were placed above the spreaded plates. Plates were incubated at 37 C for 24 h, followed by ZOI measurement. (3) Time Kill Assay: 0.5 McFarland standard equal S. aureus culture was prepared in sterile water. Besifloxacin gels were diluted in Tryptone Soya broth (TSB) to get final concentration of 25 μg/ml. Then 900 μl of S. aureus 0.5 McFarland standard equal culture and 100 μl of diluted Besifloxacin gel was mixed to obtain final Besifloxacin concentration, 2.5 μl g/ml. Total reaction mixture (1 ml) was incubated at 37° C. in a tube rotator. After 2 and 6 h exposure, bacterial suspension was placed on Tryptone soya agar plate and incubated at 37° C. for 24 h.
Inoculated plates were incubated at 37° C. for 24 hours.

P. acnes MTCC 1951 = experiment: MIC by micro broth dilution (Alamar blue), clindamycin-susceptible P. acnes; format: cell-based, Propionibacterium acnes; settings: for MIC: Cutibacterium acnes, MTCC1951, read-out: MIC Susceptible P. acnes (1951) strain; for Activity / bacterial killing, dose response curve (in words): clindamycin-susceptible MTCC 1951
Protocol: as §4, §5, §6
BHI broth and BHI agar media were prepared as per the manufacturer's instruction and autoclaved at 121° C. for 15 minutes. […] For MIC determination testing, gels are dissolved in the solvent and further diluted with BHI broth. Then, 96 wells plate are filled with 100 μl of BHI broth containing drug with different concentration to get the final concentrations of 0.06, 0.13, 0.25, 0.5, 1 and 2 μg/ml in different lanes (lane 1 to lane 6). Remaining lanes of the 96 well plate are used as growth control and sterility control. Finally, P. acnes culture suspension (approx 1.5×10^6) is added in all the wells except sterility control wells and plate is incubated at 37° C. for 48-72 h under anaerobic condition. At the end of 72 h, Alamar blue solution (20 μl) is added into the wells and incubated at 37° C. for 2 h. Plate is visualized for bacterial inhibitions and MIC values of the tested samples are determined. […]

Structure (SMILES)	Percentage reduction in P. acnes induced IL-1α release (IL-1α) [%]	Percentage reduction in P. acnes induced IL-8 release (IL-8; 25 μg/ml, 100% = P. acnes induced cells) [%]	Expression of Cytokines IL-8 (pg/ml) Mean (IL-8; Cells + P. acnes + 0.4 μg/ml (positive control), 24 h, Table 70) [pg/mL]	Expression of Cytokines IL-8 (pg/ml) Mean (IL-8; Cells + P. acnes + Dexamethasone 0.4 μg/ml, Table 71) [pg/mL]	Percentage reduction in P. acnes induced IL-6 release (IL-6; 25 μg/ml, THP-1 cells, 100% = P. acnes induced cells) [%]	Expression of Cytokines IL-6 (pg/ml) Mean (IL-6; Cells + P. acnes + 0.4 μg/ml (positive control), THP-1 cells, 24 h, Table 70) [pg/mL]	Expression of Cytokines IL-6 (pg/ml) Mean (IL-6; Cells + P. acnes + Dexamethasone 0.4 μg/ml, THP-1 cells, Table 71) [pg/mL]	Reduction in IL-6 levels (IL-6; Example 61, positive control) [%]	Percentage reduction in P. acnes induced IL-1β release (IL-1β) [%]	MIC (P. acnes CCARM 9010) [µg/mL]	Activity / bacterial killing, dose response curve (in words) (P. acnes CCARM 9010)	Inhibition of super-coiling activity of DNA gyrase (in words) (E. coli DNA gyrase)	Activity against S. aureus strain (in words) (S. aureus MTCC 6908)	MIC (S. aureus MTCC 6908) [µg/mL]	MIC (P. acnes MTCC 1951) [µg/mL]	Activity / bacterial killing, dose response curve (in words) (P. acnes MTCC 1951)	Activity / bacterial killing, dose response curve (in words) (P. acnes CCARM 9010; listed as compound 90)	Activity / bacterial killing, dose response curve (in words) (P. acnes MTCC 1951; listed as compound 90)
C[C@@H]1C[C@H]2[C@@H]3CCC4=CC(=O)C=C[C@]4(C)[C@@]3(F)[C@@H](O)C[C@]2(C)[C@@]1(O)C(=O)CO [Dexamethasone]	53.83	58.78	1080.8	1080.76	99.54	2.15	2.15	~100	64.73	–	–	–	–	–	–	–	–	–
CCCCCCCCCCCC(=O)OC(CN1CCN(c2cc3c(cc2F)c(=O)c(C(=O)O)c2n3C(C)S2)CC1)Cn1c([N+](=O)[O-])cnc1C (stereo not drawn) [Compound 113, 7-{4-[2-Dodecanoyloxy-3-(2-methyl-5-nitro-imidazol-1-yl)-propyl]-piperazin-1-yl}-6-fluoro-1-methyl-4-oxo-4H-2-thia-8b-aza-cyclobuta[a]naphthalene-3-carboxylic acid]	–	–	–	–	–	–	–	–	–	8 (≈ 11.2 µM)	hardly showed any activity	able to inhibit the super-coiling activity	least activities	> 8.2	8.2 (≈ 11.5 µM)	hardly showed any activity	–	–
Cc1ncc([N+](=O)[O-])n1CC(O)CCCCN1CCN(c2cc3c(cc2F)c(=O)c(C(=O)O)c2n3C(C)S2)CC1 (stereo not drawn) [Compound 115, 6-Fluoro-7-{4-[5-hydroxy-6-(2-methyl-5-nitro-imidazol-1-yl)-hexyl]-piperazin-1-yl}-1-methyl-4-oxo-4H-2-thia-8b-aza-cyclobuta[a]naphthalene-3-carboxylic acid]	–	–	–	–	–	–	–	–	–	0.8 (≈ 1.39 µM)	more than double MIC values	able to inhibit the super-coiling activity	–	1.6 (≈ 2.78 µM)	0.4 (≈ 0.696 µM)	more than double MIC values	–	–
Cc1ncc([N+](=O)[O-])n1CC(CCl)OC(=O)CN1CCN(c2cc3c(cc2F)c(=O)c(C(=O)O)c2n3C(C)S2)CC1 (stereo not drawn) [Compound 90, 7-{4-[1-Chloromethyl-2-(2-methyl-5-nitro-imidazol-1-yl)-ethoxycarbonylmethyl]-piperazin-1-yl}-6-fluoro-1-methyl-4-oxo-4H-2-thia-8b-aza-cyclobuta[a]naphthalene-3-carboxylic acid]	–	–	–	–	–	–	–	–	–	0.9 (≈ 1.48 µM)	shows activity	able to inhibit the super-coiling activity	–	1 (≈ 1.64 µM)	1.7 (≈ 2.79 µM)	ineffective	promising activity	not active
Cc1oc(=O)oc1CN1CCN(c2cc3c(cc2F)c(=O)c(C(=O)OC(CCl)Cn2c([N+](=O)[O-])cnc2C)c2n3C(C)S2)CC1 (stereo not drawn) [Compound 94, 6-Fluoro-1-methyl-7-[4-(5-methyl-2-oxo-[1,3]dioxol-4-ylmethyl)-piperazin-1-yl]-4-oxo-4H-2-thia-8b-aza-cyclobuta[a]naphthalene-3-carboxylic acid 1-chloromethyl-2-(2-methyl-5-nitro-imidazol-1-yl)-ethyl ester]	–	–	–	–	–	–	–	–	–	3 (≈ 4.52 µM)	hardly showed any activity	able to inhibit the super-coiling activity	–	2.8 (≈ 4.22 µM)	3 (≈ 4.52 µM)	hardly showed any activity	–	–
Cc1ncc([N+](=O)[O-])n1CC(O)CCN1CCN(c2cc3c(cc2F)c(=O)c(C(=O)O)c2n3C(C)S2)CC1 (stereo not drawn) [Compound 116, 6-Fluoro-7-{4-[3-hydroxy-4-(2-methyl-5-nitro-imidazol-1-yl)-butyl]-piperazin-1-yl}-1-methyl-4-oxo-4H-2-thia-8b-aza-cyclobuta[a]naphthalene-3-carboxylic acid]	–	–	–	–	–	–	–	–	–	0.8 (≈ 1.46 µM)	more than double MIC values	able to inhibit the super-coiling activity; also recorded: highly potent; also recorded: best gyrase inhibiting activity	–	1.64 (≈ 3 µM)	0.4 (≈ 0.732 µM)	more than double MIC values	–	–
